Experimental data: article PMC3486876 (PLoS Neglected Tropical Diseases, 2012)
Values joined by “and” are separate entries in the source; they are usually repeats but may differ in a detail not shown here. Equal entries are not always repeated. Where two headings read alike, the source gives them in different places. Marks after values point to notes of the source that are not given here.

Key:
[1] = target: T1, rat α1β2γ2 GABA(A) receptor (Rattus norvegicus, UniProt P18508+P62813+P63138); assay: Two-electrode voltage-clamp of GABA(A) receptor expressed in Xenopus laevis oocytes; type: cell-based; settings: for Emax: read-out: Emax (maximum potentiation relative to GABA alone)
T1 construct: expressed in transfected cells; host or cells: Xenopus laevis oocytes injected with cRNA (constructs a gift from Dr Erwin Sigel)
T1 sequence (P62813 28-455): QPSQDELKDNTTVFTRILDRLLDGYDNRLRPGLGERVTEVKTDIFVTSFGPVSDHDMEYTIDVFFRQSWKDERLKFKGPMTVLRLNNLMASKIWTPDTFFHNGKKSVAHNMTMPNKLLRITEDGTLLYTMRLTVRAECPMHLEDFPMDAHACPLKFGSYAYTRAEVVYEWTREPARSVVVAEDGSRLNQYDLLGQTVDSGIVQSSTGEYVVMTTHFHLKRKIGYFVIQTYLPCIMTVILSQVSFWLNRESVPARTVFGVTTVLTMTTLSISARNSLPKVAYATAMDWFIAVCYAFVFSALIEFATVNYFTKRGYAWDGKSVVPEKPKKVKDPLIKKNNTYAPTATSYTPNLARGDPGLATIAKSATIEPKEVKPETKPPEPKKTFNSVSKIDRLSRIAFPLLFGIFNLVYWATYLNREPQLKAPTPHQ
T1 sequence (P63138 25-474 limits assumed): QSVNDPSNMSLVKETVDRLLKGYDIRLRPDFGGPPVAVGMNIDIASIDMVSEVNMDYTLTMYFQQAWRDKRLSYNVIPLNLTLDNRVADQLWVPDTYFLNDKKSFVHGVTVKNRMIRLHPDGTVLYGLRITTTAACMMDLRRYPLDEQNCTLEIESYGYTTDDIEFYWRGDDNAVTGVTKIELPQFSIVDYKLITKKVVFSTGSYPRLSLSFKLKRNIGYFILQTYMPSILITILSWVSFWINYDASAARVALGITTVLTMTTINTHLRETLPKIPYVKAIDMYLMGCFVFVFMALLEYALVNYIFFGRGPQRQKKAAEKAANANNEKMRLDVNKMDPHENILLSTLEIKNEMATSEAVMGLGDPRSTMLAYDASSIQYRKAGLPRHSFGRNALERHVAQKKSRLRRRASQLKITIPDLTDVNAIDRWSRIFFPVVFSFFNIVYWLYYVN
T1 sequence (P18508 39-466): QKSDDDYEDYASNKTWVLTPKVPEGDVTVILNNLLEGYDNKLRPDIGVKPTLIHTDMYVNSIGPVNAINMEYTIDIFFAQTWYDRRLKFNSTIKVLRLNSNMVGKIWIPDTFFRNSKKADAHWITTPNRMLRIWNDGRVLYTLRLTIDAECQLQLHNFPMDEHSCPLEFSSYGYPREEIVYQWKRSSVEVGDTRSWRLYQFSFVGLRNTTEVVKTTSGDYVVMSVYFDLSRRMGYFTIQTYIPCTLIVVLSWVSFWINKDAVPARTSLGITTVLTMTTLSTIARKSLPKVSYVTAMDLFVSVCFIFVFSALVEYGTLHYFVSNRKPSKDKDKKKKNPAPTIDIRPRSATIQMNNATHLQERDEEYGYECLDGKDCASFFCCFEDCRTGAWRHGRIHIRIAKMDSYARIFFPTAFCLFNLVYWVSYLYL
Procedure: Oocytes from X. laevis, injected with foreign cDNA of the receptor of choice, are a commonly used tool for studying the activity of plasma membrane receptors. […] Isolation of oocytes from the frogs, defolliculation, culturing of the oocytes and injection of cRNA were performed as described previously. Oocytes were injected with 46 nl of RNA solution, with RNA coding for α1, β2 and γ2 subunits at a ratio of 10∶10∶50 nM [30]. The injected oocytes were incubated in modified Barth's solution [90 mM NaCl, 3 mM KCl, 0.82 mM MgSO4, 0.41 mM CaCl2, 0.34 mM Ca(NO3)2, 100 U/ml penicillin, 100 µg/ml streptomycin and 100 µg/ml kanamycin, 5 mM HEPES pH 7.6] at 18°C for approximately 36 h before the measurements to ensure the expression of a functional receptor.
Electrophysiological experiments were performed by the two-electrode voltage-clamp method. Measurements were done in ND96 medium containing 96 mM NaCl, 2 mM KCl, 1 mM MgCl2, 1.8 mM CaCl2 and 5 mM HEPES, pH 7.5, at a holding potential of −80 mV. Currents were measured using a custom-made two-electrode voltage clamp amplifier in combination with an XY recorder (90% response time, 0.1 s). The intracellular electrodes were filled with 3 M KCl (resistance of 0.5–1.5 MΩ). […] The perfusion solution (6 ml/min) was applied through a glass capillary with an inner diameter of 1.35 mm. […] The modulatory compounds (IVM and MOX) were first dissolved in DMSO at 20 mM and then diluted in ND96 to the final concentration.
Concentration ranges used were: IVM: 0.5 nM–10 µM; MOX: 1 nM–5 µM.
A washout period of 5 min between each agonist application was introduced, allowing receptors to fully recover from desensitization. The perfusion system was cleaned, after application of MLs, between each experiment by washing with 10% DMSO in ND96 to avoid contamination. Three or four different batches of oocytes were used to collect data for each analysis.
All experiments were conducted at least in triplicate. Differences in ML tissue concentrations were analyzed by one-way analysis of variance (ANOVA) with a Tukey post-test and are expressed as mean ± standard deviation (S.D.). […] Half-maximal concentrations (EC50), slope factors (Hill coefficients, nH) and maximal potentiation values for ML-induced activation of current were obtained using the Hill equation. Statistical analysis was performed using unpaired t-tests with Welch's correction to allow for differences in variances (GraphPad Instat, San Diego, CA, USA). Differences were considered statistically significant when p<0.05.

[2] = Acute toxicity (14-day survival, LD50) after subcutaneous administration; settings: mouse, in vivo, sc, Mdr1ab(−/−) mice, survival over 14 days, determined graphically
Procedure: (§1) For acute toxicity experiments, Mdr1ab(−/−) mice (2–8 per dose rate) were injected subcutaneously with drug solutions at dose rates ranging from 0.1–1.75 mg/kg bw (0.11–2.0 µmol/kg bw) for IVM and 0.2–8.2 mg/kg bw (0.31–12.9 µmol/kg bw) for MOX. […] Mice were euthanized when severe tremors or ataxia were noted.

Mdr1ab(−/−) mice = assay: Neurological symptoms after subcutaneous administration; type: in vivo, mouse; settings: for Neurological signs: 0.46 µmol/kg SC; for Start of neurotoxic signs (lethargy, tremors and/or ataxia): dose rates close to the respective LD50 (0.46 IVM, 2.3 MOX µmol/kg)
Procedure: as §1

wild-type mice = settings: cited from earlier work
Mdr1a-deficient mice = test system: Mdr1a-deficient mice; design: method as in PMID 7910522; settings: Mdr1a-deficient mice mutated on only the abcb1a gene; cited from earlier work
[3] = no reference given; cited from earlier work
[4] = test system: purinergic (ATP) (cationic) receptors; settings: cited from earlier work
acetylcholine receptors = test system: acetylcholine receptors; design: method as in PMID 17707779; settings: cited from earlier work
P-gp-deficient dogs = settings: cited from earlier work
[5] = Drug concentration in plasma and brain (HPLC) in Mdr1ab(−/−) mice; type: in vivo, mouse; settings: 0.23 µmol/kg SC
Procedure: For drug plasma concentration and brain accumulation assessment, Mdr1ab(−/−) mice were injected subcutaneously with an equivalent molar dose rate for both MLs in Mdr1ab(−/−) mice (6 animals per group): 0.23 µmol/kg, corresponding to 0.20 mg/kg and 0.15 mg/kg for IVM and MOX, respectively. Mice were sacrificed at 2 or 24 h after treatment.
(§2) Mice were anesthetized 2 h or 24 h after administration with isoflurane and heparinized blood samples were collected from the orbital sinus vein. Immediately thereafter, mice were sacrificed by cervical dislocation and brains were rapidly removed. Blood samples were centrifuged at 1500 g for 10 min at 4°C and the plasma fraction was collected and stored at −20°C until analysis. The brains were washed in saline solution and frozen at −20°C until analysis.
(§3) ML concentrations were determined in plasma and brain by high performance liquid chromatography (HPLC) with fluorescence detection according to previously described and validated methods, [25]. In brief, plasma and tissues were homogenised in acetonitrile (1∶1 v/v or 1∶2 v/w, respectively). Samples were centrifuged at 2000 g and the supernatant applied to a Supelco C18 cartridge (Supelco Inc., Bellefonte, PA, USA) by using automated solid phase extraction (SPE). […] The eluate was evaporated and the dry extract was processed to obtain a fluorophore derivative by dissolving it in 1N-methylimidazole and trifluoroacetic anhydride solutions. Samples were injected into the HPLC system (PU980 pump, Jasko, Tokyo, Japan; 360 automatic injector, Kontron, Paris, France; RF-551 fluorescence detector, Shimadzu, Kyoto, Japan). For IVM and MOX a Supelcosil LC18 column (250×4.6 mm, 5 µm, Supelco, Bellefonte, PA, USA) was used with acetic acid (0.2% in water)∶methanol∶acetonitrile (4∶40∶56, v/v/v) as mobile phase.

[6] = Drug concentration in plasma and brain (HPLC) in wild-type mice; type: in vivo, mouse; settings: 24 h post-treatment; for Brain concentration at LD50: determined graphically from Figure 3B; for Brain-to-plasma ratio (slope of brain vs plasma concentration): increasing doses
Procedure: as §2, §3

[7] = Drug concentration in plasma and brain (HPLC) in Mdr1ab(−/−) mice; type: in vivo, mouse; settings: 24 h post-treatment; for Brain concentration at LD50: determined graphically from Figure 3A; for Brain-to-plasma ratio (slope of brain vs plasma concentration): increasing doses
P-gp = test system: P-gp; design: method as in PMID 17134887; settings: cited from earlier work
humans = test system: humans; design: method as in clinicaltrials.gov NCT00856362, NCT00300768, NCT00790998; settings: approximately 1,700 people; ref clinicaltrials.gov NCT00856362, NCT00300768, NCT00790998; cited from earlier work
[8] = potentiation of current evoked by 2 µM GABA (EC10)
[9] = oral administration, ref 20 (IVM), 21 (MOX)

Structure (SMILES): NCCCC(=O)O [GABA, γ-aminobutyric acid]
- EC10 (concentration producing 10% of maximal response) ([1]; GABA alone, n = 12): 2080 ± 1180 nM
- Hill slope ([1]; GABA alone, n = 12): 1.30±0.07 and 1.30±0.02

Structure (SMILES): CCC(C)[C@H]1O[C@]2(CC[C@@H]1C)C[C@@H]1C[C@@H](C/C=C(\C)[C@@H](O[C@H]3C[C@H](OC)[C@@H](O[C@H]4C[C@H](OC)[C@@H](O)[C@H](C)O4)[C@H](C)O3)[C@@H](C)/C=C/C=C3\CO[C@@H]4[C@H](O)C(C)=CC(C(=O)O1)[C@]34O)O2 (some centres unmarked) [Ivermectin]
- LD50 at 14 days [2]: 0.4 mg/kg and 0.46 µmol/kg
- Behaviour of mice (Mdr1ab(−/−) mice; 0.11 µmol/kg SC): no changes in the behaviour of mice were observed
- Neurological symptoms observed (Mdr1ab(−/−) mice; 0.11 µmol/kg SC, 1 h post-treatment (ditto marks to 14 d)): Visually normal
- Neurological symptoms observed (Mdr1ab(−/−) mice; 0.40 µmol/kg SC, 1 h post-treatment (ditto marks to 5 h)): Visually normal
- Neurological symptoms observed (Mdr1ab(−/−) mice; 0.40 µmol/kg SC, 6 h post-treatment): Lethargy
- Neurological symptoms observed (Mdr1ab(−/−) mice; 0.40 µmol/kg SC, 7 h post-treatment, these mice euthanized): 2/5 Ataxia ^c/tremor ^d ^†
- Neurological symptoms observed (Mdr1ab(−/−) mice; 0.40 µmol/kg SC, 12 h post-treatment): 3/5 Sleepiness
- Neurological symptoms observed (Mdr1ab(−/−) mice; 0.40 µmol/kg SC, 1 d post-treatment (ditto marks to 14 d)): Visually normal
- Neurological signs (Mdr1ab(−/−) mice; 6 h post-administration): severe neurotoxic signs
- Neurological signs (Mdr1ab(−/−) mice; just after administration): hyperactivity
- Neurological symptoms observed (Mdr1ab(−/−) mice; 0.69 µmol/kg SC, 2 h post-treatment): Rapid breathing
- Neurological symptoms observed (Mdr1ab(−/−) mice; 0.69 µmol/kg SC, 5 h post-treatment): Ataxia ^c
- Neurological symptoms observed (Mdr1ab(−/−) mice; 0.69 µmol/kg SC, 6 h post-treatment, mice euthanized): Lethargy ^†
- Start of neurotoxic signs (lethargy, tremors and/or ataxia) (Mdr1ab(−/−) mice): 6 h
- EC50 [1]: 33.8 ± 7.7 nM
- Maximum potentiation of the GABA(A) receptor by IVM compared with MOX ([1]; co-application with 2 µM GABA): ~2 fold
- Concentration to reach Emax [1, 8]: 0.49 µM
- Hill slope [1, 8]: 1.52±0.45
- Hill slope ([1]; potentiation of current evoked by 2 µM GABA (EC10), listed as IVM): 1.52
- Emax [1]: 414 ± 66.1%
- LD50 (wild-type mice): 27–34 ^b µmol/kg
- LD50 (wild-type mice; [9]): around 30 mg/kg
- LD50 (Mdr1a-deficient mice): 0.6–0.8 µmol/kg bw
- logP [3]: 4.8
- Concentration required to potentiate the receptors [4]: 3 µM
- Concentration required to potentiate the receptors (acetylcholine receptors): 30 µM
- Signs of neurotoxicosis (P-gp-deficient dogs; MDR1-deficient dogs, therapeutic dose 0.2 mg/kg): severe signs of neurotoxicosis

Structure (SMILES): CO/N=C1\C[C@]2(C[C@@H]3C[C@@H](C/C=C(\C)C[C@@H](C)/C=C/C=C4\CO[C@@H]5[C@H](O)C(C)=C[C@@H](C(=O)O3)[C@]45O)O2)O[C@H](/C(C)=C/C(C)C)[C@H]1C [Moxidectin]
- LD50 at 14 days [2]: 1.47 mg/kg and 2.3 µmol/kg
- Toxicity (Mdr1ab(−/−) mice; 0.46 µmol/kg SC (same dose rate as IVM)): did not show any toxicity
- Neurological symptoms observed (Mdr1ab(−/−) mice; 2 µmol/kg SC, 1 h post-treatment): Visually normal
- Neurological symptoms observed (Mdr1ab(−/−) mice; 2 µmol/kg SC, 2 h post-treatment (ditto marks to 4 h; transient), listed as MOX): rapid breathing was transiently observed
- Neurological symptoms observed (Mdr1ab(−/−) mice; 2 µmol/kg SC, 5 h post-treatment (ditto marks to 14 d)): Visually normal
- Neurological symptoms observed (Mdr1ab(−/−) mice; 2.6 µmol/kg SC, 1 h post-treatment (ditto marks to 3 h)): Visually normal
- Neurological symptoms observed (Mdr1ab(−/−) mice; 2.6 µmol/kg SC, 4 h post-treatment (ditto marks to 8 h)): Sleepiness
- Neurological symptoms observed (Mdr1ab(−/−) mice; 2.6 µmol/kg SC, 12 h post-treatment, mice euthanized): Ataxia ^c/Tremor ^d ^†
- Neurological symptoms observed (Mdr1ab(−/−) mice; 4 µmol/kg SC, 1 h post-treatment): Balance problems
- Neurological symptoms observed (Mdr1ab(−/−) mice; 4 µmol/kg SC, 2 h post-treatment (ditto marks to 4 h)): Sleepiness
- Neurological symptoms observed (Mdr1ab(−/−) mice; 4 µmol/kg SC, 5 h post-treatment, mice euthanized): Ataxia ^c/Coma ^†
- Start of neurotoxic signs (lethargy, tremors and/or ataxia) (Mdr1ab(−/−) mice): 4 h
- Brain-to-plasma concentration ratio ([5]; 2 h): 0.3 ± 0.1 mL/g
- Drug concentration in brain ([5]; 2 h): 18.8 ± 2.8 pmol/g
- Drug concentration in brain ([5]; 2 h, listed as MOX): 18.8 ± 2.8 pmol/g
- Brain-to-plasma concentration ratio ([5]; 24 h): 2.2 ± 0.7 mL/g
- Drug concentration in brain ([5]; 24 h): 93.0 ± 28.9 pmol/g
- Drug concentration in plasma ([5]; 24 h): 42.8 ± 9.3 nM
- Brain-to-plasma concentration ratio ([5]; 24 h, listed as MOX): 2.2 ± 0.7 mL/g
- concentration at 2 h ([5]; mouse, plasma, 2 h): 60 ± 14.5 nM
- concentration at 24 h ([5]; mouse, plasma, 24 h): 42.8 ± 9.3 nM
- Brain concentration at LD50 [6]: 740–1380 ^d pmol/g
- Brain concentration at LD50 ([6]; listed as MOX): 740 to 1380 pmol/g
- Brain-to-plasma ratio (slope of brain vs plasma concentration) [6]: 0.09 (R^2 = 0.984) ^e ml/g
- Brain-to-plasma ratio (slope of brain vs plasma concentration) ([6]; listed as MOX): 0.09 mL/g
- EC50 [1]: 11.8 ± 9.2 nM
- Concentration to reach Emax [1, 8]: 0.66 ^c µM
- Hill slope [1, 8]: 0.34±0.56
- Hill slope ([1]; potentiation of current evoked by 2 µM GABA (EC10), listed as MOX): 0.34±0.56 and 0.34
- Emax [1]: 257 ± 40.6%
- Brain concentration at LD50 [7]: 830 ^c pmol/g
- Brain concentration at LD50 ([7]; listed as MOX): 830 pmol/g
- Brain-to-plasma ratio (slope of brain vs plasma concentration) [7]: 2.6 (R^2 = 0.936) ^e ml/g
- Brain-to-plasma ratio (slope of brain vs plasma concentration) ([7]; listed as MOX): 2.6 mL/g
- LD50 (wild-type mice): 70–131 ^b µmol/kg
- LD50 (wild-type mice; [9]): 86 mg/kg
- logP [3]: 6
- Effectiveness in inhibiting transport activity by P-gp, fold less than IVM (P-gp): 10 fold
- Dose safely used (P-gp-deficient dogs; P-gp-deficient Collie dogs, spot-on application): up to 32.5 mg/kg
- Signs of toxicosis (P-gp-deficient dogs; P-gp-deficient dogs sensitive to IVM, 100 µg/kg daily for 7 days): did not produce signs of toxicosis
- Toxicological signs (P-gp-deficient dogs; dogs sensitive to 120 µg/kg oral IVM, similar molar dose rate, oral): did not produce any toxicological signs
- Serious adverse events (humans): without evidence of any serious adverse events
